Data: the kinase profiling compilation of Christmann-Franck et al. (2016)

Tests used:
Test in all cases: radiometric filter-binding kinase assay, Kinase HotSpot
Details in all cases: compound 0.5 µM; ATP 10 µM
[1] = biological target: STK33 (human) (UniProt Q9BYT3)
[2] = biological target: CSK (human) (UniProt P41240)
[3] = biological target: NEK1 (human) (UniProt Q96PY6)
[4] = biological target: CDK4 CCND3 (human) (UniProt P30281+P11802)
[5] = biological target: MAP2K2 (human) (UniProt P36507)
[6] = biological target: MAP3K9 (human) (UniProt P80192)
[7] = biological target: CDK1 CCNA2 (human) (UniProt P06493+P20248)
[8] = biological target: PIM2 (human) (UniProt Q9P1W9)
[9] = biological target: INSRR (human) (UniProt P14616)
[10] = biological target: SRC (human) (UniProt P12931)
[11] = biological target: CAMK2G (human) (UniProt Q13555)
[12] = biological target: AKT2 (human) (UniProt P31751)
[13] = biological target: PIM3 (human) (UniProt Q86V86)
[14] = biological target: STK24 (human) (UniProt Q9Y6E0)
[15] = biological target: ADRBK1 (human) (UniProt P25098)
[16] = biological target: PDGFRA (human) (UniProt P16234)
[17] = biological target: TGFBR1 (human) (UniProt P36897)
[18] = biological target: PRKX (human) (UniProt P51817)
[19] = biological target: JAK1 JH1 catalytic (human) (UniProt P23458)
[20] = biological target: PAK7 (human) (UniProt Q9P286)
[21] = biological target: FRK (human) (UniProt P42685)
[22] = biological target: HCK (human) (UniProt P08631)
[23] = biological target: FGR (human) (UniProt P09769)
[24] = biological target: SLK (human) (UniProt Q9H2G2)
[25] = biological target: MAP3K2 (human) (UniProt Q9Y2U5)
[26] = biological target: MAP3K3 (human) (UniProt Q99759)
[27] = biological target: NEK9 (human) (UniProt Q8TD19)
[28] = biological target: IRAK4 (human) (UniProt Q9NWZ3)
[29] = biological target: CAMK4 (human) (UniProt Q16566)
[30] = biological target: GSK3A (human) (UniProt P49840)
[31] = biological target: MAPK12 (human) (UniProt P53778)
[32] = biological target: CDK1 CCNB1 (human) (UniProt P06493+P14635)
[33] = biological target: NTRK3 (human) (UniProt Q16288)
[34] = biological target: TEK (human) (UniProt Q02763)
[35] = biological target: MAP4K2 (human) (UniProt Q12851)
[36] = biological target: CHEK1 (human) (UniProt O14757)
[37] = biological target: CDK3 CCNE1 (human) (UniProt Q00526+P24864)
[38] = biological target: WNK2 (human) (UniProt Q9Y3S1)
[39] = biological target: HIPK3 (human) (UniProt Q9H422)
[40] = biological target: TNK2 (human) (UniProt Q07912)
[41] = biological target: AURKC (human) (UniProt Q9UQB9)
[42] = biological target: MAP3K11 (human) (UniProt Q16584)

Sequence of PAK7 (human) (Q9P286 whole entry, looked up): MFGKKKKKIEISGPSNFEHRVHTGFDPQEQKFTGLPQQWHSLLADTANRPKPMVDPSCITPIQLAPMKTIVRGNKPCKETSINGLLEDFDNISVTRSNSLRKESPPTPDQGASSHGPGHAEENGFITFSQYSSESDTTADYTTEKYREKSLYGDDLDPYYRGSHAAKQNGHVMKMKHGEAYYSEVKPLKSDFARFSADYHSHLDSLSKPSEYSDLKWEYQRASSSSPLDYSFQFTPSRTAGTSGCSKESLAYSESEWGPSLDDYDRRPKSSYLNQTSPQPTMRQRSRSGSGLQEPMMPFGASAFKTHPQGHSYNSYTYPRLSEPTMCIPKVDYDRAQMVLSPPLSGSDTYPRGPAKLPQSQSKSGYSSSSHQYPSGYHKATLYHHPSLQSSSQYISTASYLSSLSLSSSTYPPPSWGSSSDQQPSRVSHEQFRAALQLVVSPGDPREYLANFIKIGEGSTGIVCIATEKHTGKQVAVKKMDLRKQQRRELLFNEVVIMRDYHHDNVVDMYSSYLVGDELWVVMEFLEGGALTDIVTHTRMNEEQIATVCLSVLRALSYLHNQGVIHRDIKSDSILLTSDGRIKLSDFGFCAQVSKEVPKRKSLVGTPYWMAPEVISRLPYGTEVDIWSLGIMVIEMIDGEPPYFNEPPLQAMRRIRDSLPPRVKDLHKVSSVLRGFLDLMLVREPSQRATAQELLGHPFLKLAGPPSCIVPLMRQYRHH
Sequence of AURKC (human) (Q9UQB9 whole entry, looked up): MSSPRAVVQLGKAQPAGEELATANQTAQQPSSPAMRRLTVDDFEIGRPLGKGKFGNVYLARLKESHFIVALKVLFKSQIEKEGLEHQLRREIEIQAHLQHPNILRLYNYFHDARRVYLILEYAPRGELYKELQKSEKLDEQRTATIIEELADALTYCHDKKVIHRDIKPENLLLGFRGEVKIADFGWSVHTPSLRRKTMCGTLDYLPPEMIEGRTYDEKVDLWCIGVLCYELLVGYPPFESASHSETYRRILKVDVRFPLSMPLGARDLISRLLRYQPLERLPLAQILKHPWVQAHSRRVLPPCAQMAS
Sequence of PRKX (human) (P51817 whole entry, looked up): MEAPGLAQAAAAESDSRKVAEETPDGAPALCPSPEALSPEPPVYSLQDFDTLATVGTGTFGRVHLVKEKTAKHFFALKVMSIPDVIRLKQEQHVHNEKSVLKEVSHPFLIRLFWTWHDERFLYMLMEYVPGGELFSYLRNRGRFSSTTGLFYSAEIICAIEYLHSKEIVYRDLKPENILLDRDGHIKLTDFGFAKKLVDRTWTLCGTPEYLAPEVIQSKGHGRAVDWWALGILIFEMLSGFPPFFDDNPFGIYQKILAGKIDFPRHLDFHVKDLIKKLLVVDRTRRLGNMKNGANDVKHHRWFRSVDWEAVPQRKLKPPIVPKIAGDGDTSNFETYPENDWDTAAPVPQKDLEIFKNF
Sequence of MAPK12 (human) (P53778 whole entry, looked up): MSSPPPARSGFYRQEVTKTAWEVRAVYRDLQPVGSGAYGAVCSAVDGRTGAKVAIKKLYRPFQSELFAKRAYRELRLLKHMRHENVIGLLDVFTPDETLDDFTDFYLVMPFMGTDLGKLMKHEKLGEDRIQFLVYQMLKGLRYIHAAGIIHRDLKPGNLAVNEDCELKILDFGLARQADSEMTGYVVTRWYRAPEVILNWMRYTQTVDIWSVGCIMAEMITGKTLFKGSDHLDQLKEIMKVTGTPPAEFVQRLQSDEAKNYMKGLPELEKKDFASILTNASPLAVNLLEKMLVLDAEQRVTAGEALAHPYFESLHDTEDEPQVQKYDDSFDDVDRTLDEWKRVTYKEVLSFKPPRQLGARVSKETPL
Sequence of SLK (human) (Q9H2G2 whole entry, looked up): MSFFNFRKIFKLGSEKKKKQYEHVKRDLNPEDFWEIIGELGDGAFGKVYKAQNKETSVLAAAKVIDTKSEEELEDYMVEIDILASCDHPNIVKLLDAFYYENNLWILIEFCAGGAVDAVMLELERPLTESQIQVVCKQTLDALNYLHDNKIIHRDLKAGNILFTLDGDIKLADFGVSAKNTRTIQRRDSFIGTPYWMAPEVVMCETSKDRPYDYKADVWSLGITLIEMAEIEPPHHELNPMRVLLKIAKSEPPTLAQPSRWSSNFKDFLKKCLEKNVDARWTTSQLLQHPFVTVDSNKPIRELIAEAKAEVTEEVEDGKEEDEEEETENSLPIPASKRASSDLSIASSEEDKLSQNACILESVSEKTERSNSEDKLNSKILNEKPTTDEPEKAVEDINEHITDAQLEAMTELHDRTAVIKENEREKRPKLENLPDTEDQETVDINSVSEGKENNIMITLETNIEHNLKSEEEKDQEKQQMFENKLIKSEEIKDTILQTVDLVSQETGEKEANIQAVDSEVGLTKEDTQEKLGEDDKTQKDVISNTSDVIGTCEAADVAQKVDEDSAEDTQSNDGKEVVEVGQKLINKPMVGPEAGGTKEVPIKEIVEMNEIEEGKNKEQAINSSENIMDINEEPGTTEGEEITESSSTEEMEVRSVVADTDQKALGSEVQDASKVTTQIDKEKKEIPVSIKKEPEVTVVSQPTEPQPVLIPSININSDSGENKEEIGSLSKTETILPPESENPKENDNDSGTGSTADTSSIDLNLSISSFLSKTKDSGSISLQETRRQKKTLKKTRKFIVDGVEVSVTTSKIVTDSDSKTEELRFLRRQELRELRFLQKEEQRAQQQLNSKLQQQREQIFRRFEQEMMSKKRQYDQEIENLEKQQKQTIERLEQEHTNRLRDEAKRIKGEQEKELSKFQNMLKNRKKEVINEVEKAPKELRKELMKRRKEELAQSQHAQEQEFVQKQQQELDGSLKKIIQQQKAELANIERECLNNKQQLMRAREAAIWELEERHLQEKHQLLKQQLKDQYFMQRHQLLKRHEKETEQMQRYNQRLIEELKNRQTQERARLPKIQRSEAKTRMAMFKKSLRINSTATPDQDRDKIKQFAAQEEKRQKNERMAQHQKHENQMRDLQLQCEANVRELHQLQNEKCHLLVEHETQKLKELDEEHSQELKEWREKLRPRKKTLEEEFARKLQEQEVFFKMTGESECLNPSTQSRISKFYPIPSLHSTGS
Sequence of CDK4 CCND3 (human) (P11802 whole entry, looked up): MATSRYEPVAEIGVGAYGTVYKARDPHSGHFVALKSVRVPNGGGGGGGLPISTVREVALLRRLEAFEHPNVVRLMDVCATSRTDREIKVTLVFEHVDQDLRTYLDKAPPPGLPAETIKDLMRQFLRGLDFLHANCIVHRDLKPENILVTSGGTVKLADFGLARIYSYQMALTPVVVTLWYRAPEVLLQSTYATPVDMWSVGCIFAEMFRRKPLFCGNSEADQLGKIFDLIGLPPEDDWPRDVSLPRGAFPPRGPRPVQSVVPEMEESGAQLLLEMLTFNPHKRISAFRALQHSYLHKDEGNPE
Sequence of CDK4 CCND3 (human) (P30281 whole entry, looked up): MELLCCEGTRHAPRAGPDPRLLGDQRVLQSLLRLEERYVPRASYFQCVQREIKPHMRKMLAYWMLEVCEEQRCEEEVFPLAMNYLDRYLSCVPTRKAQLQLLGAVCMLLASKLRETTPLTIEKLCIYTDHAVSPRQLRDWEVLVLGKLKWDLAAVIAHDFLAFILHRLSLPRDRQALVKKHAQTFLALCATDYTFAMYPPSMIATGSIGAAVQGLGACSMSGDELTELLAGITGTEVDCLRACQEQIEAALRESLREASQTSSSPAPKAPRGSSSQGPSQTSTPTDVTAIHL
Sequence of GSK3A (human) (P49840 whole entry, looked up): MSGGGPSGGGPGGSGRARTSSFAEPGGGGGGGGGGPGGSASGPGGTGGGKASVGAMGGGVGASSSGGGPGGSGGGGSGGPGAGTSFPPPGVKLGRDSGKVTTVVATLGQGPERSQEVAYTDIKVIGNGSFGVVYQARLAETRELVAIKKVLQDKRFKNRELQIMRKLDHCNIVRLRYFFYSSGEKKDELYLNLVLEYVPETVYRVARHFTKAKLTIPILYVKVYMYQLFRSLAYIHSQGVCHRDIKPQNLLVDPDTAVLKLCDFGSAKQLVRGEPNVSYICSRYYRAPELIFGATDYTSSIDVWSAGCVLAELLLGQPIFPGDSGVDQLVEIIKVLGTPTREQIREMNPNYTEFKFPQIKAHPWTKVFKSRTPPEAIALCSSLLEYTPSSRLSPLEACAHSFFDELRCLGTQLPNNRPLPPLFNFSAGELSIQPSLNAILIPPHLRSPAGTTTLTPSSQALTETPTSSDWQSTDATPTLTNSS
Sequence of PIM2 (human) (Q9P1W9 whole entry, looked up): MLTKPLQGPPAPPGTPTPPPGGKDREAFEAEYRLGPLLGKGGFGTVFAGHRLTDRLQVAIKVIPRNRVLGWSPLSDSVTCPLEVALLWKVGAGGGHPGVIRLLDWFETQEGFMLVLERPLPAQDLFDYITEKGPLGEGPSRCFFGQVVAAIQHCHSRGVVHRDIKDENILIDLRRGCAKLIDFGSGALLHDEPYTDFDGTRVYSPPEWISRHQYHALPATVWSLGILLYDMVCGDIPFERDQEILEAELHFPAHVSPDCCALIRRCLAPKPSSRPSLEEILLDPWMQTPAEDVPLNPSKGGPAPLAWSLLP

Work on Cc1ccc(Nc2nccc(N(C)c3ccc4c(C)n(C)nc4c3)n2)cc1S(N)(=O)=O yielded a residual activity [1] of 87.1%, a residual activity [2] of 93% and a residual activity [3] of 105%. For the same compound, the residual activity [4] was 96%, the residual activity [5] was 94.8% and the residual activity [6] was 10.6%. It also gave a residual activity [7] of 96.2%, a residual activity [8] of 101% and a residual activity [9] of 96.1%. The residual activity [10] was 70.7%, the residual activity [11] was 106% and the residual activity [12] was 107%. It also gave a residual activity [13] of 81.6%, a residual activity [14] of 106% and a residual activity [15] of 90.3%. For the same compound, the residual activity [16] was 13.9%, the residual activity [17] was 103% and the residual activity [18] was 101%. It also gave a residual activity [19] of 104%, a residual activity [20] of 95.4% and a residual activity [21] of 58.1%. It also gave a residual activity [22] of 64.8%, a residual activity [23] of 35.8% and a residual activity [24] of 84.9%. It also gave a residual activity [25] of 110%, a residual activity [26] of 112% and a residual activity [27] of 95.8%. It also gave a residual activity [28] of 98.4%, a residual activity [29] of 95.9% and a residual activity [30] of 101%. It also gave a residual activity [31] of 93.7%, a residual activity [32] of 99.6% and a residual activity [33] of 87.8%. The residual activity [34] was 69.3%, the residual activity [35] was 72.5% and the residual activity [36] was 110%. For the same compound, the residual activity [37] was 93.5%, the residual activity [38] was 98.2% and the residual activity [39] was 103%. It also gave a residual activity [40] of 90.2% and a residual activity [41] of 70.9%.

N#CC(C#N)=C(N)/C(C#N)=C/c1ccc(O)cc1 gave a residual activity [1] of 93.2%, a residual activity [2] of 97.6% and a residual activity [3] of 95.7%. The residual activity [4] was 97.1%, the residual activity [5] was 103% and the residual activity [6] was 94.4%. It also gave a residual activity [7] of 90.6%, a residual activity [8] of 88.2% and a residual activity [9] of 99.9%. For the same compound, the residual activity [10] was 92.3%, the residual activity [11] was 89.4% and the residual activity [12] was 92.8%. It also gave a residual activity [13] of 91.3%, a residual activity [14] of 103% and a residual activity [15] of 104%. For the same compound, the residual activity [16] was 97.8%, the residual activity [17] was 93% and the residual activity [18] was 93.7%. The residual activity [19] was 99.4%, the residual activity [20] was 94.5% and the residual activity [21] was 99%. The residual activity [22] was 98.6%, the residual activity [23] was 98.7% and the residual activity [24] was 102%. It also gave a residual activity [25] of 102%, a residual activity [26] of 78.6% and a residual activity [42] of 94.8%. It also gave a residual activity [27] of 97.9%, a residual activity [28] of 92.6% and a residual activity [29] of 97.2%. For the same compound, the residual activity [30] was 91.1%, the residual activity [31] was 92.6% and the residual activity [32] was 111%. The residual activity [33] was 95.5%, the residual activity [34] was 104% and the residual activity [35] was 100%. For the same compound, the residual activity [36] was 98.3%, the residual activity [37] was 96.8% and the residual activity [39] was 102%. The residual activity [40] was 98.1% and the residual activity [41] was 101%.
